For data set [1], the system named is DIO mice. Nature of the data set: Metabolic cages (CLAMS) in DIO mice. The class given is in vivo. To be noted: 3 days, ACY775 10, ACY738 50 mg/kg i.p. The procedure:
Diet induced obese (DIO) mice were placed into metabolic cages and received ACY775 (10 mg/kg, i.p., n=7) or vehicle (n=8) once a day for 3 days. Energy expenditure, respiratory exchange ratios (RER; VCO2/VO2), ambulatory count (physical activity) from each group of mice were determined. Bar graphs represent average of two dark (8-20 and 32-44 hr) and two light cycles ([…]).
Comprehensive Lab Animal Monitoring System (CLAMS) was used to measure metabolic parameters such as energy expenditure (EE) and respiratory exchange ratio (RER) and physical activity levels in Vehicle- and ACY775-treated mice.

For data set [2], the system named is DIO mice. Kind of data set: Conditioned place preference (CPP) assay in DIO mice. The format is in vivo. To be noted: fed and fasting conditions, vs vehicle. The procedure: DIO mice were treated with vehicle or ACY775 (10 mg/kg, i.p., once a day) for 3 days. On the fourth day, 1 h after the beginning of the light cycle, the mice were administered vehicle or ACY775 (10 mg/kg, i.p.) and the conditioned place preference (CPP) assay under the ad libitum feeding condition was utilized. The CPP assay was performed 6 h later under the ad libitum feeding condition (n=10 mice for both the Vehicle- and ACY775-treated groups). CPP assay under a 20-h fasting condition was also performed. DIG mice were treated with vehicle or ACY775 (10 mg/kg, i.p.) once a day and fasted for 15 h after the third injection. On the fourth day, 1 h after the beginning of the light cycle, the mice were administered vehicle or ACY775 (10 mg/kg body weight, i.p.) and the CPP assay was performed 5 h after this injection under the fasting condition (n=10 mice for both the Vehicle- and ACY775-treated groups).
Measurements were made of the total distance that the mice traveled during the CPP test, the average velocity of movement during the assay, the total time the mice spent in the dark chamber during the test; the frequency with which the mice traveled to the dark chamber during the test; the total time the mice spent in the food-paired white chamber; the frequency with which the mice traveled to the food paired white chamber; the total time the mice spent in the food-containing zone within the food-paired side chamber; and the frequency with which the mice traveled to the food-containing zone within the food-paired side chamber during the test.

Another data set relates to WT lean mice. Kind of data set: 3-week treatment of WT lean mice. The class given is in vivo. The procedure:
Daily food intake (g) during 3 weeks of treatment. Serum leptin (ng/ml) levels were measured after 3 weeks of treatment. Lean mass (g); fat mass (g) and fat percentage (%) after 3 weeks of treatment were measured by DEXA scan. GTT was measured after 1 week of treatment. AOC analysis for GTT was performed. Blood glucose (mg/dl) level was measured after 1 week of treatment. ITT was measured after 2 weeks of treatment. Serum insulin (ng/ml) levels were measured after 3 weeks of treatment.

The subject of data set [3] is DIO mice. Kind of data set: Single dose food intake in 24 h-fasted DIO mice. The class given is in vivo. To be noted: ACY775 10, ACY738 50 mg/kg i.p. The procedure:
Food intake was analyzed hourly until 3:00 am. […] DEXA scans were performed in two different cohorts.

In the next data set the test system is db/db mice. Kind of data set: 3-week treatment of db/db mice. The format is in vivo. How it is done:
Daily food intake (g), Serum leptin (ng/ml), lean mass (g), fat mass (g) and fat percentage (%) were measured after 3 weeks of treatment measured by DEXA scan. GTT was determined after 1 week of treatment. AOC analysis for GTT was performed and Blood glucose (mg/dl) levels were measured after 1 week of treatment. Blood glucose (mg/dl) levels and Serum insulin (ng/ml) levels were measured after 3 weeks of treatment. ITT was assessed after 2 weeks of treatment. H&E staining of the liver sections was conducted after 3 weeks of treatment.

The subject of another data set is HDAC6 KO mice. Kind of data set: 3-week treatment of DIO WT versus HDAC6 KO mice. The format is in vivo.
In data set [4] the test system is DIO mice. Kind of data set: Glucose homeostasis in chronically treated DIO mice (GTT, ITT, insulin, HOMA-IR, liver H&E). The class given is in vivo. To be noted: for blood glucose levels / glucose tolerance (GTT): after 1 week. How it is done:
DIO mice were treated with ACY775 (10 mg/kg/day, i.p.) for 3 weeks. Daily body weight (g) of DIO mice treated with vehicle (n=17) or ACY775 (n=17) during 3 weeks of treatment was determined. Daily food intake (g) during 3 weeks of vehicle or ACY775 treatment was assessed. 24 hours' food intake per mouse during the first week of vehicle or ACY775 treatment was determined. Serum leptin (ng/ml) levels after 3 weeks of vehicle (n=24) or ACY775 (n=24) treatment was assessed. Lean mass (g), fat mass (g) and fat percentage (%) after 3 weeks of vehicle (n=17) or ACY775 (n=17) treatment measured by Dual-energy X-ray absorptiometry (DEXA) scan. DEXA scans were performed in two different cohorts. Glucose tolerance test (GTT) after 1 week of vehicle (n=33) or ACY775 (n=26) treated DIO mice was assessed. Area of curve (AOC) analysis for GTT was performed. Blood glucose (mg/dl) levels after 1 week of vehicle (n=17) or ACY775 (n=16) were assessed in treated DIO mice. Insulin tolerance test (ITT) was performed after 2 weeks of vehicle (n=31) or ACY775 (n=21) treatment of DIO mice. Serum insulin (ng/ml) levels were measured after 3 weeks of vehicle (n=22) or ACY775 (n=21) in treated DIO mice. A homeostatic model assessment of insulin resistance (HOMA-IR) was analyzed after 3 weeks of vehicle (n=14) or ACY775 (n=13) treated DIO mice. […]
Blood glucose (mg/dl) levels were measured after 1 week of vehicle (n=16) or ricolinostat (n=16) treated DIO mice. GTT after 1 week of vehicle (n=17) or ricolinostat (n=16) treatment of DIO mice was assessed. AOC analysis for GTT was performed. ITT after 2 weeks of vehicle (n=17) or ricolinostat (n=16) treated DIG mice was measured. Serum insulin (ng/ml) levels after 3 weeks of vehicle (n=8) or ricolinostat (n=8) treatment were measured in DIO mice. Liver sections from 3 weeks of vehicle or ricolinostat treated DIG mice were stained by H&E.

For data set [5] the following is noted: cited from earlier work; for brain/plasma ratio: in vivo.

“And” between values parts separate entries of the source, which are not always exact repeats. Equal entries are not always repeated. Where two headings read alike, the source gives them in different places.

For `O=C(NO)c1cnc(NC2(c3ccccc3)CC2)nc1` [ACY738], the energy expenditure result with DIO mice [1] was “higher energy expenditure in light cycle, though without significant difference in dark cycle”. Besides, in the data set on DIO mice [2], the “CPP: cumulative duration in dark side chambers” value is given as “no significant differences in cumulative duration”; the “CPP: time and frequency in food-containing white side chambers” value is “spent similar time and frequency of appearance”; the “CPP: time and frequency in the food zone” value is “significantly shorter time and displayed lower frequency of appearance in the food zone”. In addition, in the data set with WT lean mice, the daily food intake result was “similar”; the “insulin sensitivity (ITT) and circulating insulin levels” value is “no significant difference in insulin sensitivity and circulating insulin levels”. The “lean mass, total fat mass, fat percentage” value in the data set with WT lean mice (3 weeks) is recorded as “did not detect any alterations”. In addition, the body weight result in the data set on WT lean mice (3 weeks, ACY775 10, ACY738 50 mg/kg i.p.) is “neither ACY775 nor ACY738 affected the body weight”. Besides, in the data set on WT lean mice (end of treatment), the liver morphology entry is on record as “similar”. The “food intake after a single dose” value in the data set on DIO mice [3] was “significantly reduced/blocked the food intake”. For the same compound, in the data set on db/db mice, the hepatic steatosis entry is on record as “did not improve hepatic steatosis” and the plasma insulin levels entry is “did not show any significant alterations”. The “glucose tolerance (GTT)” value in the data set on db/db mice (1 week) was “no difference in glucose tolerance”. Further, in the data set on db/db mice (2 weeks), the ITT entry is “no significant difference in blood glucose levels”. Moreover, the “body weight heavier than initial body weight” value in the data set with db/db mice (end of 3 weeks, ACY775 10, ACY738 50 mg/kg i.p.) is 2.53%±0.97%. In addition, the “body weight, HDAC6 KO vs WT DIO mice” value in the data set on HDAC6 KO mice (3 weeks i.p., ACY775 10, ACY738 50, Tubastatin A 25 mg/kg/day) is reported as “slight decrease in the HDAC6KO mice”. In addition, in the data set on HDAC6 KO mice (DEXA), the “fat mass and fat %, HDAC6 KO vs WT” value is listed as “significantly lower in the wt group”; the “lean mass, HDAC6 KO vs WT” value is “not different”. Also, the “reduction of bodyweight of the wt mice” value in the data set with HDAC6 KO mice (DIO wt mice, ACY738 50 mg/kg i.p.) is “around 20%”. In the data set on HDAC6 KO mice (mouse, in vivo), the “blood glucose, serum insulin and leptin levels, HDAC6 KO vs WT” value is “significantly higher in the ACY738-treated HDAC6 KO group”; the “food intake, HDAC6 KO vs WT DIO mice” value was “significantly higher in the HDAC6 KO group”; the “glucose tolerance and insulin sensitivity (GTT, ITT), HDAC6 KO vs WT” value was “did not improve glucose tolerance and increase insulin sensitivity in the HDAC6 KO mice”. For the same compound, in the data set with DIO mice [4], the “insulin tolerance test (ITT) / insulin sensitivity” value is “improved insulin tolerance”, the blood glucose levels result was “significantly reduced” and the “glucose tolerance (GTT)” value is “significant improvement of glucose homeostasis”. In addition, in the data set on DIO mice [4] (after 3 weeks), the circulating/serum insulin levels entry was “reduced insulin levels”, the “hepatic steatosis (liver H&E)” value is on record as “improved hepatic steatosis” and the “insulin resistance (HOMA-IR)” value was “ameliorated insulin resistance”.
As to `O=C(CCCCCCNC(=O)c1cnc(N(c2ccccc2)c2ccccc2)nc1)NO` [Ricolinostat], in data set [5], the brain/plasma ratio is 0.01 and < 0.01. For the same compound, in data set [5] (listed as ricolinostat), the brain/plasma ratio was 0.01. Further, in data set [5] (in words), the “brain penetrance / BBB permeability” value was “poor BBB permeability”. For the same compound, in the data set with DIO mice [4], the “insulin tolerance test (ITT) / insulin sensitivity” value is listed as “did not improves glucose tolerance (FIG. 8M) or insulin sensitivity”, the blood glucose levels entry is given as “did not reduce blood glucose levels” and the “glucose tolerance (GTT)” value was “did not improves glucose tolerance”. Also, in the data set on DIO mice [4] (after 3 weeks), the circulating/serum insulin levels result is “did not reduce insulin levels” and the “hepatic steatosis (liver H&E)” value is listed as “no decrease in the hepatic steatosis”.

The values above are taken from patent US20240252496A1, “SELECTIVE HYPOTHALAMUS PERMEABLE HDAC6 INHIBITORS FORTREATMENT OF LEPTIN-RESISTANT OBESITY” (The Children’s Medical Center Corporation, priority 2022, published 2024).
